Earlier results, collected in patent US20050070524A1, “Compositions of a cyclooxygenase-2 selective inhibitor and an anticonvulsant agent for the treatment of central nervous system disorders” (Pharmacia Corporation, priority 2003, published 2005).

Columns and labels:
[1] = tested on: high-voltage-activated Ca^2+ currents; conditions: rat cortical neurons
[2] = tested on: high-voltage-activated Ca^2+ channels; conditions: isolated CA1 hippocampal neurons of rats

SMILES | inhibition of high-voltage-activated Ca^2+ currents [1] | inhibition of high-voltage-activated Ca^2+ channels [2]
Nc1nnc(-c2cccc(Cl)c2Cl)c(N)n1 [lamotrigine] | large dose-dependent inhibition | –
CC[C@@H](C(N)=O)N1CCCC1=O [levetiracetam] | – | directly and irreversibly inhibited
